Measurements published in EP0353777A2, “New 2,5-disubstituted tetrahydrofuran derivatives” (J. URIACH & CIA. S.A., priority 1988, dated 1990).
Like-named read-outs stand apart in the source and are kept apart here.

Columns and labels:
[1] = tested on: hypotension induced by PAF; assay: Test 2: Inhibition of the hypotensive effect induced by PAF in normotense rats; format: in vivo; conditions: anesthetized male Sprage Dawley rats; compounds given through the femoral vein 3 min. before PAF (0.5 mcg/Kg, i.v.); average arterial pressure
Procedure: Test 2 - Inhibition of the hypotensive effect induced by PAF in normotense rats. Male Sprage Dawley rats, of 180-220 g of weight, anesthetized with sodium pentobarbital (50 mg/Kg, i.p. 1 mL/100 g) have been used. In order to measure the average arterial pressure, a polyethylene catheter is introduced into the carotid artery. The arterial pressure is recorded with the help of a transducer connected with a […] Beckman polygraph. […]

[2] = tested on: platelet aggregation induced by PAF; assay: Test 1: Inhibition of platelet aggregation induced by PAF; format: cell-based; conditions: rabbit platelet rich plasma, aggregation induced by PAF (C₁₈) 16 nM final, Born nephelometric technique, read-out: IC₅₀
Procedure: Test 1: Inhibition of platelet aggregation induced by PAF.
The blood is obtained by cardiac puncture of male New Zealand albino rabbits (between 2 and 2.5 Kg of weight) and coagulatlon is prevented by adding 1 part of 3.16% sodium citrate dihydrate in 9 parts of blood. The platelet rich plasma (PRP) is prepared by blood centrifugation at 250xg for 10 min. at 4°C and it is diluted with platelet poor plasma (PPP) obtained by additional centrifugation at 3000xg for 10 min. The amount of platelets is adjusted to […]. The platelet aggregation induced by PAF (C₁₈, prepared in our laboratory) (16 nM, final) is determined by the Born nephelometric technique (J. Physiol., 1962 162, 67) using a aggregometer Chrono-log 500. The activities of the inhibitors are expressed as IC₅₀, that is to say the concentration of the drug needed to inhibit the platelet aggregation in a 50%.

| SMILES | CI₅₀ [1] | IC50 ([2]; Oryctolagus cuniculus) [nM] | IC50 [2] [nM] |
| --- | --- | --- | --- |
| CCCCCCCCCCCCCCCCCC1CCC(COC(=O)N(Cc2cccc[n+]2C)C(C)=O)O1 (mixture of isomers) [Compound 5, (±)-cis,trans-2-[N-acetyl-N-[((5-heptadecyl-2-tetrahydrofuranyl)methoxy)carbonyl]aminomethyl]-1-methylpiridinium iodide] | 0,8 mg/Kg,i.v. | 1100 |  |
| CCCCCCCCCCCCCCCCCC1CCC(COC(=O)N(Cc2cccc[n+]2CC)C(=O)OCC)O1 (mixture of isomers) [Compound 7, (±)-cis,trans-2-[N-ethoxycarbonyl-N-[((5-heptadecyl-2-tetrahydrofuranyl)methoxy)carbonyl]aminomethyl]-1-ethylpyridinium iodide] | 0,34 mg/Kg,i.v. | 130 |  |
| CCCCCCCCCCCCCCCC1CCC(COC(=O)N(Cc2cccc[n+]2CC)C(C)=O)O1 (mixture of isomers) [Compound 11, (±)-cis,trans-2-[N-acetyl-N-[((5-pentadecyl-2-tetrahydrofuranyl)methoxy)carbonyl]aminomethyl]-1-ethylpyridinium iodide] | 0,15 mg/Kg,i.v. | 95 |  |
| CCCCCCCCCCCCCCCC1CCC(COC(=O)CCCCC[n+]2ccsc2)O1 (mixture of isomers) [Compound 12, (±)-cis,trans-3-[6-[(5-pentadecyl-2-tetrahydrofuranyl)methoxy]-6-oxohexyl] tiazolium 4-methylbenzenesulfonate] |  | 3100 |  |
| CCCCCCCCCCCCCCCC1CCC(COCCCCCC[n+]2ccsc2)O1 (mixture of isomers) [Compound 13, (±)-cis,trans-3-[6-[(5-pentadecyl-2-tetrahydrofuranyl)methoxy]hexyl]tiazolium 4-methylbenzenesulfonate] |  | 1300 |  |
| CCCCCCCCCCCCCCCCCNC(=O)OCC1CCC(COC(=O)N(Cc2cccc[n+]2CC)C(C)=O)O1 (mixture of isomers) [Compound 16, (±)-cis,trans-2-[N-acetyl-N-[((5-(((N-heptadecylcarbamoyl)oxy)methyl)-2-tetrahydrofuranyl)methoxy)carbonyl]aminomethyl] -1-ethylpiridinium iodide] | 0,064 mg/Kg,i.v. | 40 |  |
| CCCCCCCCCCCCCCCNC(=O)OCC1CCC(COC(=O)N(Cc2cccc[n+]2CC)C(C)=O)O1 (mixture of isomers) [Compound 19, (±)-cis,trans-2-[N-acetyl-N-[((5-(((N-pentadecylcarbamoyl)oxy)methyl)-2-tetrahydrofuranyl)methoxy)carbonyl]aminomethyl] -1-ethylpiridinium iodide] | 0,098 mg/Kg,i.v. | 54 |  |
| CCCCCCCCCCCCCCCCOCC1CCC(COC(=O)N(Cc2cccc[n+]2CC)C(C)=O)O1 (mixture of isomers) [Compound 25, (±)-cis,trans-2-[N-acetyl-N-[((5-((hexadecyloxy)methyl)-2-tetrahydrofuranyl)methoxy)carbonyl]aminomethyl]-1-ethylpyridinium iodide] | 0,036 mg/Kg,i.v. | 74 |  |
| CCCCCCCCCCCCCCCCC[C@@H]1CC[C@H](COC(=O)N(Cc2cccc[n+]2CC)C(C)=O)O1.[I-] (racemic) [Compound 3, (±)-cis,trans-2-[N-acetyl-N-[((5-heptadecyl-2-tetrahydrofuranyl)methoxy)carbonyl]aminomethyl]-1-ethylpiridinium iodide] | 0,15 mg/Kg,i.v. |  | 71 |
| CCCCCCCCCCCCCCCCC[C@@H]1CC[C@H](COC(=O)N(Cc2cccc[n+]2CC)C(C)=O)O1.[Cl-] (racemic) [Compound 4, (±)-cis,trans-2-[N-acetyl-N-[((5-heptadecyl-2-tetrahydrofuranyl)methoxy)carbonyl]aminomethyl]-1-ethylpiridinium chloride] | 0,19 mg/Kg,i.v. |  | 190 |
